From patent publication US20240353394A1, “ASSAY METHODS FOR SCREENING INHIBITORS OF SICKLE CELL DISEASE, ß-THALASSEMIA, OR SICKLE CELL ß-THALASSEMIA, OR A PHENOTYPE THEREOF” (Alexion Pharmaceuticals, Inc., priority 2021, published 2024)

Columns and labels:
Format in all cases: cell-based, human
[1] = system: SS-RBCs; test: Heme dose-dependent induction of iC3b deposition on SS-RBCs
Excerpt: (§1) RBCs and serum from SCD patients homozygous for the mutation in the hemoglobin gene (SS) were obtained from BioIVT (cat HUMANRBCALSUZN and HMRBC-SCA respectively) and from Sanguine Biosciences (Study #24348). Gelatin Veronal Buffer (GVB) was obtained from Boston Bioproducts (cat. IBB-300X). Mg-EGTA (cat. B106), C8 depleted normal human serum (cat. A325) and normal human serum (cat. NHS) were obtained from Complement Technology. PBS was obtained from Corning, cat. 21-031-CV. Porcine heme (Sigma, cat. 51280) was used at various concentrations (50-800 uM) to amplify complement activation and induce deposition on human cells.
(§2) All centrifugations were performed at 440×g for 5 min at 4° C. and supernatants aspirated with multi-channel pipets to avoid disturbing the loose RBC pellets.
Patient SS-RBCs were washed three times in PBS, resuspended in GVB, 5 mM Mg-EGTA and re-distributed to sterile V-bottom 96 well plates at a concentration of 2×10^6 cells/well. […] Heme was used at 0, 100, 200, 400, and 800 μM. Following incubation for 20-30 minutes at 37° C. 5% CO2, PBS containing 10% EDTA (Corning, cat. 46-030-CI) was added to stop complement activation. RBCs were washed and stained with antibody to iC3b as detailed below.
(§3) Cells were resuspended in 50 μL per well iC3b (Quidel, cat. A209) or C5b-9 antibody (Quidel, cat. A239) diluted to 4 μg/mL in PBS and incubated for 20-30 min at 4° C. (in some cases, staining for flow cytometry was performed in sheath fluid). Cells were washed twice with 150-200 μL PBS, resuspended in 50 μL goat anti-mouse IgG (H+L)-AF488 (Invitrogen cat. A11029) diluted to 4 μg/mL in PBS and incubated for 20-30 min at 4° C. In some experiments, goat anti-mouse IgG2b AF488 was used at 4 μg/mL (Invitrogen, cat. A21141). Cells were washed twice with 150-200 μL PBS and acquired on the LSR Fortessa for flow cytometric analysis.

[2] = system: SS-RBCs; test: Heme-induced complement (iC3b, C5b-9) deposition on SS-RBCs, flow cytometry; details: for Q2 % Parent iC3b+ / Q2 % Parent C5b-9+: 20% autologous serum, heme 400 μM, 20-30 min 37° C.; for Q2 % Parent iC3b+: Table 3, FIG. 2A; for Q2 % Parent C5b-9+: Table 3, FIG. 2B; for effect on heme-induced C3 deposition (opsonization) on SS-RBCs / effect on heme-induced C5b-9 (MAC) deposition on SS-RBCs: heme and autologous serum; for effect on heme-induced C3 deposition (opsonization) on SS-RBCs: FIG. 2A; for effect on heme-induced C5b-9 (MAC) deposition on SS-RBCs: FIG. 2B
Excerpt: as §1, §2
Patient SS-RBCs were washed two or three times in PBS. To induce complement deposition, RBCs were resuspended in GVB, 5 mM Mg-EGTA (assay buffer) at 5×10^7 cells/mL and 30 μL added to sterile V-96 wells. Autologous serum was added to 20% final concentration. Complement inhibitors were diluted in assay buffer at 5× working stock of 3.125 μM and 10 μL added to wells containing cells. Porcine heme was added to 400 μM and the cells incubated for 20-30 minutes at 37° C., 5% CO2. Complement activation was stopped by the addition of 150 μL/well PBS containing 10 mM EDTA. Cells were centrifuged and washed once with 200 μL PBS and stained for iC3b and C5b-9 deposition below.
Flow cytometric Analysis of iC3b and C5b-9 Deposition on the Surface of SS-RBCs
as §3

[3] = system: HMEC-1 cells; test: Heme-induced complement (iC3b, C5b-9) deposition on HMEC-1 cells, flow cytometry; details: for Q2 % Parent iC3b+ / Q2 % Parent C5b-9+: HMEC-1, 20% normal human serum, 1 uM inhibitor, heme 400 μM, 20-30 min 37° C.; for Q2 % Parent iC3b+: Table 4, FIG. 4A; for Q2 % Parent C5b-9+: Table 4, FIG. 4B; for effect on heme-induced C3 deposition on endothelial cells / effect on heme-induced C5b-9 (MAC, TCC) deposition on endothelial cells: HMEC-1, heme and NHS; for effect on heme-induced C3 deposition on endothelial cells: FIG. 4A; for effect on heme-induced C5b-9 (MAC, TCC) deposition on endothelial cells: FIG. 4B
Procedure: The endothelial cell line HMEC-1 was purchased from ATCC (CRL 3243) and expanded and banked at AcCellerate (Cat. CBA02, lot 92-190318FG01). This is a dermal microvascular endothelial cell line. Cells were used in experiments at passage <5.
All centrifugation steps were performed for 5-7 min at 200-300 g at room temperature (RT). HMEC-1 cells were seeded into 6 well plates at 1.5×10^5 cells per well in medium (Endothelial cell growth medium MV2, Promocell, cat. 22022) and allowed to reach confluency (72 hrs). Normal human serum (Complement Technologies, cat. NHS) was spiked with 1 uM inhibitor, diluted to 20% using Live cell imaging solution (LCIS) (Invitrogen, cat A1429DJ) containing 5-10 mM MgEGTA and added to HMEC-1 cultures in place of the medium. Heme was added to 400 μM, mixed and incubated for 20-30 min at 37° C. Cells were rinsed twice with 2 mLs PBS (Corning, cat. 21-031-CV) and detached with PBS containing 10 mM EDTA (Corning, cat. 46-034-CI). Cells were centrifuged, pellets resuspended in 400 μL sheath fluid (BD Biosciences, cat. 342003) and transferred to V-bottom 96 well plates in duplicate. After centrifugation, pellets were resuspended in 50 μL per well sheath fluid containing either iC3b or C5b-9 antibody diluted to 4 μg/mL. Following several washes, the cells were incubated with 50 μL of goat anti mouse IgG (H+L) AF 488 diluted to 4 μg/mL in sheath fluid for 30 min at 4° C. Following several washes, cells were acquired on the LSR Fortessa for flow cytometry analysis.

[4] = system: monocytes in whole blood; test: Heme-induced tissue factor expression on monocytes in whole blood, flow cytometry; details: hirudin whole blood; for Q2 % Parent TF+: CD14 monocytes, inhibitor 1 μM, heme 100 μM, 4 hrs 37° C., Table 5
Procedure: Human whole blood was obtained internally from healthy donors according to Institutional Review Board protocol. Blood was drawn into custom hirudin blood draw tubes obtained from Haematologic Technologies (cat. SCAT-296-5/5, 500 ATU/mL). This anti-coagulant allows simultaneous activation of complement and coagulation (through but not beyond thrombin). Blood was aliquoted into facs tubes (0.2 mL per tube) and inhibitors added to 1 μM. Heme was added to 100 μM and the samples were incubated for 4 hrs at 37° C., 5% CO2, mixing approximately every 30 minutes. To stain for flow cytometry, 10 μL of TruStain FcX (Biolegend, cat. 422302) was added for a 5-10 minute incubation at RT (to block IgG receptors). Mouse anti-human CD14 PerCP Cy5.5 (BD Biosciences, cat. 550787) (5 μL per sample) and mouse anti-human tissue factor-PE (BD Biosciences, cat. 550312) were added (20 μL per sample) and the samples were mixed and incubated for 30 minutes at RT. To lyse RBCs, 3 mLs of 1× lysis buffer (BD Biosciences Cat. 555899) was added to each tube followed by vortexing and incubation for 20 min at RT. The samples were centrifuges at 340 g for 5 minutes and washed twice with PBS. Cell pellets were resuspended in 0.5 mL PBS and acquired on the LSR Fortessa for flow cytometric analysis. Monocytes were gated via CD14 triggering and data was expressed as percentage of CD14 monocytes positive for tissue factor (TF).

[5] = system: whole blood; test: IL-8 production in whole blood model of thromboinflammation; details: heme, FIG. 6

Molecule: C=CC1=C(C)c2cc3[n-]c(cc4[n-]c(cc5nc(cc1n2)C(C)=C5C=C)c(C)c4CCC(=O)O)c(CCC(=O)O)c3C.[Fe+2] [heme]
- Q2 % Parent iC3b+ ([1]; 100 uM heme, 20% SS-Serum): 18.3%
- Q2 % Parent iC3b+ ([1]; 100 uM heme, No Serum): 2%
- Q2 % Parent iC3b+ ([1]; 200 uM Heme, 20% SS-Serum): 22.8%
- Q2 % Parent iC3b+ ([1]; 200 uM Heme, No Serum): 1.3%
- Q2 % Parent iC3b+ ([1]; 400 uM heme, 20% SS-Serum): 49.6%
- Q2 % Parent iC3b+ ([1]; 400 uM heme, No Serum): 1.1%
- Q2 % Parent iC3b+ ([1]; 800 uM heme, 20% SS-Serum): 69.7%
- Q2 % Parent iC3b+ ([1]; 800 uM heme, No Serum): 0.8%
- induction of C3 deposition (opsonization) on SS-RBCs ([1]; heme 100-800 μM, 20% autologous serum, FIG. 3): potent and dose dependent opsonization

Molecule: CC(=O)c1nn(CC(=O)N2[C@H](C(=O)Nc3nc(Br)ccc3C)C[C@@]3(C)C[C@@H]23)c2ccc(-c3cnc(C)nc3)cc12 [ALXN2050, vermincopan]
- Q2 % Parent iC3b+ [2]: 3.5%
- Q2 % Parent C5b-9+ [2]: 3.4%
- Q2 % Parent iC3b+ [3]: 3.4%
- Q2 % Parent C5b-9+ [3]: 3%
- effect on heme-induced C3 deposition on endothelial cells [3]: block
- effect on heme-induced C5b-9 (MAC, TCC) deposition on endothelial cells [3]: block
- Q2 % Parent TF+ [4]: 1.4%

B1: Crizanlizumab: antibody manufactured using the published sequence of Crizanlizumab, an anti-P-selectin antibody FDA approved for prevention of VOC in SCD (antibody, chains of the INN, looked up, V domains shown)
VH: QVQLVQSGAEVKKPGASVKVSCKVSGYTFTSYDINWVRQAPGKGLEWMGWIYPGDGSIKYNEKFKGRVTMTVDKSTDTAYMELSSLRSEDTAVYYCARRGEYGNYEGAMDYWGQGTLVTVSS
VL: DIQMTQSPSSLSASVGDRVTITCKASQSVDYDGHSYMNWYQQKPGKAPKLLIYAASNLESGVPSRFSGSGSGTDFTLTISSLQPEDFATYYCQQSDENPLTFGGGTKVEIK
- Q2 % Parent iC3b+ [2]: 38.6%
- Q2 % Parent C5b-9+ [2]: 7.3%
- effect on heme-induced C3 deposition (opsonization) on SS-RBCs [2]: little to no effect
- effect on heme-induced C3 deposition (opsonization) on SS-RBCs ([2]; listed as anti-P-selectin antibody): no effect
- effect on heme-induced C5b-9 (MAC) deposition on SS-RBCs [2]: little to no effect
- effect on heme-induced C5b-9 (MAC) deposition on SS-RBCs ([2]; listed as anti-P selectin antibody): no effect
- Q2 % Parent iC3b+ [3]: 82.9%
- Q2 % Parent C5b-9+ [3]: 53.7%
- effect on heme-induced C3 deposition on endothelial cells [3]: no effect
- effect on heme-induced C5b-9 (MAC, TCC) deposition on endothelial cells [3]: no effect
- Q2 % Parent TF+ [4]: 23.2%
- effect on heme-induced TF upregulation by monocytes ([4]; heme, FIG. 5A, FIG. 5B): no effect
- effect on IL-8 production [5]: no effect
